Experimental data from patent US12692262B2, “Substituted ureas as orexin receptor agonists” (Merck Sharp & Dohme LLC, priority 2020, dated 2026).

Target: T1, human OX2R (Homo sapiens, UniProt O43614)
T1 construct: expressed in transfected cells; host or cells: CHO (Chinese hamster ovary) cells grown under G418 selection
T1 sequence (O43614 1-444): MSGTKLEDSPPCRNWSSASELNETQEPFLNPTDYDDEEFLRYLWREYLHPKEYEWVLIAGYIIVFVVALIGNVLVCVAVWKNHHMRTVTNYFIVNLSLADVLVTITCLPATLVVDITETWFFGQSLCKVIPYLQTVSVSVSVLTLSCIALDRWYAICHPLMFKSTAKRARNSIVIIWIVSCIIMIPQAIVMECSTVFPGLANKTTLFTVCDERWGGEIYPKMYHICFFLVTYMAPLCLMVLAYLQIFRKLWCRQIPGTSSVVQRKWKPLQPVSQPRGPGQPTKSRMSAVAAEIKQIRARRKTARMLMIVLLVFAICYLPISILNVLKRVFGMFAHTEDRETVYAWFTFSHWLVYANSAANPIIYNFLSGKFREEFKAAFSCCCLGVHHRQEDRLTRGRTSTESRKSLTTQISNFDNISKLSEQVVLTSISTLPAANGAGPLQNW
Assay: IPOne (IP-1 accumulation) assay in CHO cells expressing human OX2R
Type: cell-based
Details: for EC50: CHO cells expressing human OX2R, IP-One assay, 2 h incubation, four parameter logistic fit, read-out: OX2R Potency, EC50; for % of maximum agonist effect (relative to Orexin A): percent effect vs mean max effect of a reference compound at 1 uM (100% activity vs Orexin A), human OX2R
Excerpt: The utility of the compounds in accordance with the present invention as orexin receptor OX1R and/or OX2R agonists may be readily determined without undue experimentation by methodology well known in the art. Both the OX1R and/or OX2R G-coupled protein receptors (GPCRs) couple through the Gαq signaling pathway, which ultimately promotes calcium mobilization via inositol triphosphate (IP3) production. […] The utility of the compounds in accordance with the present invention as orexin receptor OX1R and/or OX2R agonists may be determined utilizing this assay.
In a typical experiment, the OX1 and OX2 receptor agonist activity is determined in accordance with the following general experimental method. Chinese hamster ovary (CHO) cells expressing human OX1R and/or the human OX2R were grown in Iscove's modified DMEM containing glutaMAX™, 1% G418, 100 U/mL penicillin, 100 μg/mL streptomycin and 10% heat-inactivated qualified fetal bovine serum (FBS). […] During this incubation, IP-one detection reagents were prepared (38:1:1 lysis buffer:D2:AB-cryptate reagents).
For each compound, data were fit to a four parameter logistic fit (ActivityBase software) and the EC50 was reported as the inflection point of the resulting curve. […] The intrinsic orexin receptor agonist activity of a compound which may be used in the present invention may be determined by these assays.

Row | EC50 [nM] | % of maximum agonist effect (relative to Orexin A) [%] | SMILES
1 | 0.7 | 99.7 | CCN(C(=O)N[C@@H](CCC(F)(F)F)C(F)(F)F)[C@H](C)c1cccc(-c2cc(OC)c3ncc(Cl)n3c2)c1 [Example 8-9, 1-((R)-1-(3-(3-chloro-8-methoxyimidazo[1,2-a]pyridin-6-yl)phenyl)ethyl)-1-ethyl-3-((S)-1,1,1,5,5,5-hexafluoropentan-2-yl)urea]
2 | 22.5 | 98.5 | CCC(NC(=O)N(CC)[C@@H](c1cc(-c2cn3ccnc3c(OC)n2)c(OC)cn1)C(F)(F)F)C(F)F (stereo partly drawn) [Example 2-10, 3-(1,1-difluorobutan-2-yl)-1-ethyl-1-((S)-2,2,2-trifluoro-1-(5-methoxy-4-(8-methoxyimidazo[1,2-a]pyrazin-6-yl)pyridin-2-yl)ethyl)urea]
3 | 16.3 | 101.2 | CCN(C(=O)NC(C)C(F)F)[C@@H](c1cc(-c2cn3ccnc3c(OC)n2)c(OC)cn1)C(F)(F)F (stereo partly drawn) [Example 2-41, 3-(1,1-difluoropropan-2-yl)-1-ethyl-1-((S)-2,2,2-trifluoro-1-(5-methoxy-4-(8-methoxyimidazo[1,2-a]pyrazin-6-yl)pyridin-2-yl)ethyl)urea]
4 | 27.8 | 101.7 | CCN(C(=O)NC1CC1(F)F)[C@@H](c1cc(-c2cn3ccnc3c(OC)n2)c(OC)cn1)C(F)(F)F (stereo partly drawn) [Example 2-42, 3-(2,2-difluorocyclopropyl)-1-ethyl-1-((S)-2,2,2-trifluoro-1-(5-methoxy-4-(8-methoxyimidazo[1,2-a]pyrazin-6-yl)pyridin-2-yl)ethyl)urea]
5 | 7.5 | 99.6 | CCN(C(=O)N[C@@H](CCC(F)(F)F)C(F)(F)F)[C@H](C)c1cc(-c2cc(OC)c3ncoc3c2)c(OC)cn1 [Example 9-4, 1-ethyl-3-((S)-1,1,1,5,5,5-hexafluoropentan-2-yl)-1-((R)-1-(5-methoxy-4-(4-methoxybenzo[d]oxazol-6-yl)pyridin-2-yl)ethyl)urea]
6 | 17.2 | 101.4 | CCN(C(=O)N[C@@H](CCCF)C(F)F)[C@@H](c1cc(-c2cn3ncnc3c(OC)n2)c(OC)cn1)C(F)(F)F [Example 4-3, 1-ethyl-1-((S)-2,2,2-trifluoro-1-(5-methoxy-4-(8-methoxy-[1,2,4]triazolo[1,5-a]pyrazin-6-yl)pyridin-2-yl)ethyl)-3-((S)-1,1,5-trifluoropentan-2-yl)urea]
7 | 126 | 99.6 | CC[C@H](CCC(F)(F)F)NC(=O)N(CC)C(C)(C)c1cccc(-c2ccc3nccn3c2)c1 [Example 18, (R)-1-ethyl-1-(2-(3-(imidazo[1,2-a]pyridin-6-yl)phenyl)propan-2-yl)-3-(6,6,6-trifluorohexan-3-yl)urea]
8 | 0.8 | 100.6 | CCN(C(=O)N[C@@H](CCC(C)(F)F)C(F)(F)F)[C@H](C)c1cnc(OC)c(-c2cn3ccnc3c(OC)n2)c1 [Example 10-19, 1-ethyl-1-((R)-1-(6-methoxy-5-(8-methoxyimidazo[1,2-a]pyrazin-6-yl)pyridin-3-yl)ethyl)-3-((S)-1,1,1,5,5-pentafluorohexan-2-yl)urea]
9 | 16.8 | 101.4 | CCN(C(=O)N[C@@H](CCC(F)(F)F)C(F)(F)F)C(C)c1cc(-c2cn3ccnc3c(OC)n2)ncn1 (stereo partly drawn) [Example 13-2, 1-ethyl-3-((S)-1,1,1,5,5,5-hexafluoropentan-2-yl)-1-(1-(6-(8-methoxyimidazo[1,2-a]pyrazin-6-yl)pyrimidin-4-yl)ethyl)urea]
10 | 24 | 98.4 | CCN(C(=O)N[C@@H](CCC(F)(F)F)C(F)(F)F)C(c1cnc(SC)c(-c2cc(OC)n3nccc3c2)c1)C(F)(F)F (stereo partly drawn) [Example 2-15, 1-ethyl-3-((S)-1,1,1,5,5,5-hexafluoropentan-2-yl)-1-(2,2,2-trifluoro-1-(5-(7-methoxypyrazolo[1,5-a]pyridin-5-yl)-6-(methylthio)pyridin-3-yl)ethyl)urea]
11 | 20.3 | 100.0 | CCN(C(=O)NC1CCC1C(F)(F)F)[C@@H](c1cc(-c2cn3ccnc3c(OC)n2)c(OC)cn1)C(F)(F)F (stereo partly drawn) [Example 2-9, 1-ethyl-1-((S)-2,2,2-trifluoro-1-(5-methoxy-4-(8-methoxyimidazo[1,2-a]pyrazin-6-yl)pyridin-2-yl)ethyl)-3-(2-(trifluoromethyl)cyclobutyl)-urea]
12 | 15.8 | 99.3 | CCN(C(=O)NC(C)C(C)(F)F)[C@@H](c1cc(-c2cn3ccnc3c(OC)n2)c(OC)cn1)C(F)(F)F (stereo partly drawn) [Example 2-40, 3-(3,3-difluorobutan-2-yl)-1-ethyl-1-((S)-2,2,2-trifluoro-1-(5-methoxy-4-(8-methoxyimidazo[1,2-a]pyrazin-6-yl)pyridin-2-yl)ethyl)urea]
13 | 144 | 89.1 | CCN(C(=O)N[C@@H](CCC(F)(F)F)C(F)(F)F)[C@H](C)c1cccc(-c2cc(OC)c3nc(O)cn3c2)c1 [Example 26, 1-ethyl-3-((S)-1,1,1,5,5,5-hexafluoropentan-2-yl)-1-((R)-1-(3-(2-hydroxy-8-methoxyimidazo[1,2-a]pyridin-6-yl)phenyl)ethyl)urea]
14 | 0.7 | 101.6 | CCN(C(=O)N[C@@H](CCC(F)(F)F)C(F)(F)F)[C@H](C)c1cnc(OC)c(-c2cn3ccnc3c(OC)n2)c1 [Example 11-4, 1-ethyl-3-((S)-1,1,1,5,5,5-hexafluoropentan-2-yl)-1-((R)-1-(6-methoxy-5-(8-methoxyimidazo[1,2-a]pyrazin-6-yl)pyridin-3-yl)ethyl)urea]
15 | 1410 | 100.8 | CCC(CCC(F)(F)F)NC(=O)N(CC)[C@H](C)c1cccc(-c2cn3ccnc3cc2COC)c1 (stereo partly drawn) [Example 7-6, 1-ethyl-1-((R)-1-(3-(7-(methoxymethyl)imidazo[1,2-a]pyridin-6-yl)phenyl)ethyl)-3-(6,6,6-trifluorohexan-3-yl)urea]
16 | 12.1 | 101.5 | CCN(C(=O)NC(C1CC1)C(F)(F)F)C(c1cc(-c2cn3ccnc3c(OC)n2)c(OC)cn1)C(F)(F)F (stereo not drawn) [Example 2-6, 3-(1-cyclopropyl-2,2,2-trifluoroethyl)-1-ethyl-1-(2,2,2-trifluoro-1-(5-methoxy-4-(8-methoxyimidazo[1,2-a]pyrazin-6-yl)pyridin-2-yl)ethyl)urea]
17 | 5.8 | 99.5 | COc1nc(-c2cccc(C(C)N(CC(F)F)C(=O)N[C@@H](CCC(F)(F)F)C(F)(F)F)c2)cn2ccnc12 (stereo partly drawn) [Example 2-61, 1-(2,2-difluoroethyl)-3-((S)-1,1,1,5,5,5-hexafluoropentan-2-yl)-1-(1-(3-(8-methoxyimidazo[1,2-a]pyrazin-6-yl)phenyl)ethyl)urea]
18 | 248 | 102.1 | CCC(CCC(F)(F)F)NC(=O)N(CC)[C@H](C)c1cccc(-c2cn3ccnc3cc2C)c1 (stereo partly drawn) [Example 8-8, 1-ethyl-1-((R)-1-(3-(7-methylimidazo[1,2-a]pyridin-6-yl)phenyl)ethyl)-3-(6,6,6-trifluorohexan-3-yl)urea]
